The target of data set [1] is insulin-like growth factor-1 receptor (IGF-1R). Further details: method as in PMID 20178321. As to conditions: read-out: IC50, IGF-1R inhibition; cited from earlier work.
Data set [2] can be described thus: MTS cell viability assay, HFF-1. The format is cell-based, human. As to conditions: human, HFF-1 cells (foreskin fibroblasts). The procedure: (§1) The MTS assay was employed in the current study to evaluate the in vitro effects of thiazolidinone derivatives (TZDs-1, 5, 6, and 7) on the cellular viability of the HFF-1, HepG2, and A549 cell lines following incubation for 24 and 48 h. Using the MTS assay allows for the quantitative measurement of how TZDs affect cell viability after a certain period of treatment. The 24- and 48-hour incubation periods are useful for observing either immediate and delayed cytotoxicity or effects on cell growth, providing more comprehensive data on the potential therapeutic or toxic properties of thiazolidinone derivatives.
(§2) All solvents used in the preparation of thiazolidinone derivatives were obtained in pure form from Sigma-Aldrich (St. Louis, MO, USA) and Thermo Fisher Scientific (Waltham, MA, USA). All other chemicals used herein were of analytical grade and were used without further purification. To separate and confirm the purity of thiazolidinone derivatives, column chromatography on silica gel (0.063–0.2 mm) and thin layer chromatography (TLC) with aluminum silica gel F254 were used. Human foreskin fibroblasts (HFF-1) (ATCC: SCRC-1041), hepatoblastoma cell line (HepG2) (ATCC: HB-8065), and human lung cancer cell line (A549) (ATCC: CCL-185) were used in this study to evaluate the cytotoxicity of the tested compounds. Distilled water for experiment preparation was generated using a Milli-Q® IQ 7005 Purification System (Millipore SAS, Molsheim, France).
(§3) HFF-1, HepG2, and A549 were cultured in DMEM (Sigma-Aldrich, St. Louis, MO, USA) medium complemented with 10% fetal bovine serum (FBS) (Sigma, Suffolk, UK), streptomycin ([…]), and penicillin (100 units/mL) (Sigma, Suffolk, UK) in a cell culture incubator (5% CO2 at 37 °C).
(§4) Thiazolidinone derivatives (TZDs-1, 5, 6, and 7) were prepared via dissolution in 10% DMSO and 8 serial dilutions and assessed starting from 5000 to 39 µg/mL. A CellTiter 96® AQueous One Solution Cell Proliferation Assay (MTS kit, Promega, Madison, WI, USA) was used to evaluate the cell viability of TZDs on the cells. Briefly, all cells were seeded into 96-well plates with a seeding density of 1.5 × 10^4 cells per well. After 24 h, cells adhered, and then, TZD derivatives were added, and plates were incubated in a cell culture incubator with 5% CO2 at 37 °C for 24 and 48 h. Completed DMEM was used as the positive control, and 0.1% Triton X-100 was used as the negative control. After incubation time, cells were washed with sterile phosphate-buffered saline, pH 7.4 (PBS), and then, a mixture of complete DMEM medium and MTS reagent was added to each well (100 µL of DMEM medium + 20 µL of MTS reagent). Finally, the plates were incubated for 3 h in a cell culture incubator. The absorbance at 492 nm was recorded using a Cytation ™ 3 Cell Imaging Multi-Mode Reader (BIOTEK Instruments Inc., Winooski, VT, USA). The percentage of cellular viability was calculated using the following equation:Cell Viability (%) = (S − T)/(H − T) × 100 where S is the absorbance of the cells treated with the applied compounds, T is the absorbance of the positive control, and H is the absorbance of the negative control. The results are presented as the mean ± SD of at least three independent measurements.
(Tetrazolium dyes change colour on reduction, which living cells bring about.)

The nature of data set [3]: MTS cell viability assay, HepG2. Type of data set: cell-based. As to conditions: human, HepG2 cells; for viability: concentrations of ≥1250 µg/mL, time not stated. As for the experimental part:
as §1, §2, §3, §4

Data set [4] is described as follows: MTS cell viability assay, A549. The format is cell-based. The note with it: human, A549 cells. As for the experimental part: as §1, §2, §3, §4
Data set [5] concerns normal (HFF-1) and cancerous cells (HepG2 and A549). Briefly: Summary of selectivity toward cancer cells (MTS viability, normal vs cancerous cells). The format is cell-based, human. The procedure: as §1, §3, §4
Details of data set [6]: method as in doi:10.1016/j.molstruc.2024.139348. The note with it: DPPH; unit inferred; cited from earlier work.
The nature of data set [7]: DPPH radical-scavenging assay (antioxidant activity). The format is biochemical. As for the experimental part: In this study, the antioxidant activity of the newly synthesized thiazolidinone derivative 5 was evaluated, and its IC50 value was compared with those of the parent compound, thiazolidinone 1; previously reported derivatives 6 and 7; and the reference antioxidant, ascorbic acid. To ensure a valid comparison, all compounds were assessed under identical conditions using the DPPH (2,2-diphenyl-1-picrylhydrazyl) radical-scavenging assay.
The antioxidant activity of thiazolidinone derivative 5 was evaluated under conditions similar to those reported in our previous work for thiazolidinone derivatives (1, 6, and 7) using the DPPH assay (2,2-diphenyl-1-picrylhydrazyl). The concentration needed to get rid of 50% of free radicals is called IC50 (half-maximal inhibitory concentration) (μg/mL). The value of the IC50 is determined by plotting antioxidant activity against the concentration employing the equation below:%Antioxidant activity = (Acontrol − Asample/Acontrol) × 100 where Acontrol is the absorbance of the DPPH solution without the sample, and Asample is the absorbance with the tested compound. These percentage inhibition values are then plotted against the logarithm of the compound concentrations to generate a dose–response curve. […]
For orientation: Loss of DPPH colour is used to gauge radical scavenging.

For data set [8], the system named is HFF-1 cells. Briefly: MTS cell viability assay, HFF-1. Type of data set: cell-based, human. The note with it: 48 h, 1250 µg/mL. The procedure:
as §1, §2, §3, §4

By IC50 is commonly meant the concentration needed to halve the response being measured. For the molecule `O=C1NC(=O)C(=Cc2ccco2)S1` [5-(furan-2-ylmethylene)thiazolidine-2,4-dione], in data set [1], the IC50 is 61 nM.

Consider `O=C1NC(=O)C(=Cc2ccccc2)S1` [5-benzylidenethiazolidine-2,4-dione], for which the IC50 in data set [1] was 57 nM.

What is called viability is a read-out of living cells in per cent, often relative to untreated cells. For `COc1cc(C=NNC2=NC(=O)CS2)cc(OC)c1OC` [TZD-1, 2-(2-(3,4,5-trimethoxybenzylidene) hydrazineyl)thiazol-4(5H)-one], the viability at 24 h, 1250 µg/mL in data set [2] (24 h) was 6.45%; in data set [3] (24 h), 53.2%; in data set [4] (24 h), 75.6%. For the same molecule, the viability at 48 h, 1250 µg/mL is 15.3% in data set [2], 21.9% in data set [3] and 70.6% in data set [4]. Besides, the viability in data set [3] was < 25%. The “Selectivity Toward Cancer Cells” value in data set [5] (24 h, 1250 µg/mL) was “Low (high toxicity to normal cells)”; in data set [5] (48 h, 1250 µg/mL), “Low”. For the same molecule, the IC50 of antioxidant activity (Figure 3) in data set [6] is 263 µg/mL.

Consider `COc1ccc(CN2C(=O)CSC2=NN=Cc2cc(OC)c(OC)c(OC)c2)cc1` [TZD-5, 3-(4-methoxybenzyl)-2-((3,4,5-trimethoxybenzylidene)hydrazineylidene) thiazolidin-4-one], for which, in data set [7], the “IC50 of antioxidant activity (DPPH)” value turned out to be 24.4 µg/mL. Also, the viability at 24 h, 2500 µg/mL in data set [2] (24 h, 2500 µg/mL) was determined as 97%; in data set [3] (24 h, 2500 µg/mL), 63%; in data set [4] (24 h, 2500 µg/mL), 95.8%. Besides, the viability at 48 h, 2500 µg/mL stood at 48% in data set [2] (2500 µg/mL), 57% in data set [3] (2500 µg/mL) and 55% in data set [4] (2500 µg/mL). The “Selectivity Toward Cancer Cells” value is listed as “Moderate (better selectivity)” in data set [5] (24 h, 2500 µg/mL) and “Moderate” in data set [5] (48 h, 2500 µg/mL).

`COc1cc(/C=N/N=C2\SCC(=O)N2Cc2ccccc2)cc(OC)c1OC` [TZD-6]: in data set [2] (24 h, 312 µg/mL), the viability at 24 h, 312 µg/mL was found to be 70%. Moreover, the viability at 24 h, 1250 µg/mL in data set [2] (24 h) was 2%; in data set [3] (24 h), 25%; in data set [4] (24 h), 13%. Further, the viability at 48 h, 1250 µg/mL in data set [2] is 1 to 2%; in data set [3], 12%; in data set [4], 9%. In addition, the viability at 48 h, 2500 µg/mL in data set [2] (2500 µg/mL) was 1 to 2%; in data set [3] (2500 µg/mL), 7%; in data set [4] (2500 µg/mL) it was 13%. In data set [8], the “HFF-1 Viability (%)” value is 1–2%. Further, the viability at 24 h, 156 µg/mL stood at 76% in data set [3] (24 h, 156 µg/mL) and 78% in data set [4] (24 h, 156 µg/mL). Further, the viability at 24 h, 5000 µg/mL in data set [3] (24 h, 5000 µg/mL) is 35%; in data set [4] (24 h, 5000 µg/mL), 10%. The viability in data set [3] is < 25%; in data set [4] (concentrations of ≥1250 µg/mL, time not stated) it was < 25%. Also, the “Selectivity Toward Cancer Cells” value is on record as “Low (high toxicity to normal cells)” in data set [5] (24 h, 1250 µg/mL) and “Low” in data set [5] (48 h, 1250 µg/mL). In addition, the IC50 of antioxidant activity (Figure 3) in data set [6] is 111 µg/mL.

For `COc1cc(/C=N/N=C2\SCC(=O)N2Cc2ccc([N+](=O)[O-])cc2)cc(OC)c1OC` [TZD-7], the viability at 24 h, 39 µg/mL in data set [2] (24 h, 39 µg/mL) amounted to 135%. The figures for the viability at 24 h, 1250 µg/mL in data set [2] (24 h), in data set [3] (24 h) and in data set [4] (24 h) were 110%, 96.4% and 70%, respectively. Further, the viability at 48 h, 1250 µg/mL in data set [2] is > 94%; in data set [3], ~23%; in data set [4], 82.3%. For the same molecule, the “Selectivity Toward Cancer Cells” value in data set [5] (24 h, 1250 µg/mL) is on record as “Moderate (better selectivity)”; in data set [5] (48 h, 1250 µg/mL), “High”. The IC50 of antioxidant activity (Figure 3) in data set [6] is 200 µg/mL.

Turning to `O=C1O[C@H]([C@@H](O)CO)C(O)=C1O` [ascorbic acid, reference compound], in data set [7], the “IC50 of antioxidant activity (DPPH)” value is 11.76 µg/mL.

Values taken from article PMC12249957, “Molecular Hybrids of Thiazolidinone: Bridging Redox Modulation and Cancer Therapy” (International Journal of Molecular Sciences, 2025).
